Source: patent US20130165368A1, “ANTIMICROBIAL COMPOUNDS” (priority 2010, published 2013)
Converted amounts (≈) assume the structure as drawn. Read-outs that look alike come from different tables or passages of the source.

Assays:
Assay type in all cases: cell-based
Enterococcus faecium = assay: MIC agar dilution, micro-organism 16 (7171); conditions: Enterococcus faecium 7171
Procedure, shortened: (§1)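 Twofold dilutions of compound emulsions in water were set in Isosensitest agar with Brazier's CCEY medium, egg yolk and lysed horse blood. Spots of 1 µL from 0.5 McFarland suspensions diluted 1/15 were incubated aerobically at 37 °C and read at 22 and 48 h. MIC (mmol/L) was the lowest concentration giving <10 colonies.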

Listeria monocytogenes = assay: MIC agar dilution, micro-organism 15 (11994); conditions: Listeria monocytogenes 11994
Procedure, shortened: as §1

Enterococcus faecalis = assay: MIC agar dilution, micro-organism 17 (775); conditions: Enterococcus faecalis 775
Procedure, shortened: as §1

[1] = system: Staphylococcus epidermidis; assay: MIC agar dilution, micro-organism 14 (11047); conditions: Staphylococcus epidermidis 11047
Procedure, shortened: as §1

Providencia rettgeri = assay: MIC agar dilution, micro-organism 3 (7475); conditions: Providencia rettgeri 7475
Procedure, shortened: as §1

[2] = system: Gram negative bacteria, Gram positive bacteria and pathogenic yeasts; assay: MIC agar dilution, summary statements over the micro-organisms tested (Tables I, IX)
Text: For a better understanding, the present invention will now be more particularly described, by way of non-limiting example only, as follows. The micro-organisms shown in Table I overleaf were acquired from the National Collection of Type Cultures (NCTC), Colindale, United Kingdom; the American Type Culture Collection (ATCC), Manassas, United States and the National Collection of Pathogenic Fungi (NCPF), Colindale, United Kingdom. They include Gram negative bacteria, Gram positive bacteria and pathogenic yeasts.
Throughout the period of testing the microbial strains were subcultured and incubated for 18-20 hours at 37° C. on a weekly basis. Horse blood agar plates were used to sustain the micro-organisms both prior to and throughout testing. The alkoxylated alkanols listed in Table II below were obtained (these are obtainable from Sigma-Aldrich Company Ltd, Dorset, England), each having a GC purity of at least 97%.
(§2) Molar equivalent concentrations were used to allow comparison between compounds of differing molecular mass. Due to weighing difficulties, any compound in solid form was melted in a water bath prior to dilution. To make ten-times strength concentrations, which takes into account agar dilution, 0.0352 mmol of each compound was weighed into plastic universal bottles and 4 mL of sterile distilled water (SDW) was added. To produce a homogenous emulsion the universals were vortexed; once achieved the emulsions were serial diluted by adding 2 mL to 2 mL of SDW.
Myristyl alcohol and lauryl alcohol were re-weighed and dissolved in 25 μL of the polar solvent 1-methyl-2-pyrrolidone (M6762; Sigma-Aldrich) in sterile glass universals due to an inability to achieve an even suspension. To maintain an even emulsion in the presence of SDW 37.5 μL of the non-ionic detergent Tween 20 (P1379, Sigma-Aldrich) was also added. 3.9375 mL of SDW was added to these, to create a 4 mL volume; they were vortexed and diluted as before.
(§3) For every 100 mL of Isosensitest agar (IST) (CM0471; Oxoid, Basingstoke, England), 3.1 g of the IST powder was added to 100 mL SDW (as per manufacturer's instructions) and sterilised for 15 minutes at 121° C. Once sterilised, the molten agar was cooled to 50° C. in a water-bath. Subsequently 4.8 g of CCEY powder (BC2160; Bioconnections, Wetherby, England), also known as Brazier's medium, was added to 100 mL SDW for every 100 mL of agar needed. This was then sterilised for 15 minutes at 121° C. Once sterilised the molten agar was cooled to 50° C. in a water-bath and 4 mL of egg-yolk emulsion (S2073; TCS Biosciences Ltd, Buckingham, United Kingdom) and 1 mL of lysed defibrinated horse blood (HB035; TCS Biosciences Ltd, Buckingham, United Kingdom) were also added for every 100 mL needed. Horse blood lysis is achieved by dilution to half concentration with SDW; when fully lysed the mixture will turn dark red in colour.
(§4) 18 mL agar was added to each universal and then poured into sterile Petri dishes. This step creates a 1/10 dilution resulting in agar plates of the required strength. Control plates for each set of strains were created by adding 18 mL of agar to 2 mL of SDW.
(§5) Suspensions of each bacterial species were prepared with a density equal to that of a 0.5 McFarland standard using a densitometer. All suspensions were made using sterile distilled water and fresh 18-20 hour cultures. As a 0.5 McFarland standard contains 1.5×10^8 CFU/mL and the multipoint inoculators applies 1 μL spots of liquid, each bacterial suspension was diluted 1/15 (20 μL suspension to 280 μL sterile distilled water).
Bacterial suspensions were prepared from fresh 18-24 hour cultures as previously described. 1 μL of each strain was inoculated onto all 100 agar plates containing a different chemical concentration and the 2 control plates. This was done using a multipoint inoculator which inoculates 20 strains per plate. All plates were incubated for 22 hours at 37° C. in aerobic conditions. […]

[3] = system: Enterococcus faecium (VRE) 12185 Clin waste; assay: MIC agar dilution, VRE strain 24
Procedure: as §2, §3, §4, §5
(§6) Bacterial suspensions were prepared from fresh 18-24 hour cultures as previously described. 1 μL of each strain was inoculated onto all 100 agar plates containing a different chemical concentration and the 2 control plates. This was done using a multipoint inoculator which inoculates 20 strains per plate. All plates were incubated for 22 hours at 37° C. in aerobic conditions.
(§7) Each plate was examined for bacterial growth after 22 and 48 hours, with each being incubated in between examinations. A positive result was recorded as growth of ≧10 colonies. A negative result was recorded as growth of <10 colonies as this is equivalent to 99.9% inhibition. The lowest concentration of chemical that inhibited growth was recorded as the MIC. The results are recorded in Table IV below, where the numbers are quoted in mmol/L.
(§8) Given the positive performance of the ethoxylates of lauryl alcohol in reducing the MIC for a number of the micro-organisms tested, further MIC testing of Laureth-1 [C12E1] through to Laureth-8 [C12E8] was conducted on each of the following: • 10 strains of vancomycin-resistant enterococci (VRE)—listed in Table V below; and • 20 strains of methicillin-resistant Staphylococcus aureus (MRSA)—listed in Table VI.
(§9) The alkanol, alkanol derivatives, agar plates, and inocula were all prepared in the same way as described above.
(§10) The plates were examined in the same manner as described above and the results are recorded in Table VII below, where the numbers are quoted in mmol/L.

[4] = system: Enterococcus faecium (VRE) MB310; assay: MIC agar dilution, VRE strain 29
Procedure: as §2, §3, §4, §5, §6, §7, §8, §9, §10

[5] = system: Enterococcus faecalis (VRE) MB 1969; assay: MIC agar dilution, VRE strain 27
Procedure: as §2, §3, §4, §5, §6, §7, §8, §9, §10

[6] = system: Enterococcus casseliflavus (VRE) Clin waste; assay: MIC agar dilution, VRE strain 23
Procedure: as §2, §3, §4, §5, §6, §7, §8, §9, §10

Row | SMILES | MIC (Enterococcus faecium; 22 hrs, read-out: MIC) [µM] | MIC (Enterococcus faecium; 48 hrs, read-out: MIC) [µM] | MIC (Listeria monocytogenes; 22 hrs, read-out: MIC) [µM] | MIC (Listeria monocytogenes; 48 hrs, read-out: MIC) [µM] | MIC (Enterococcus faecalis; 22 hrs, read-out: MIC) [µM] | MIC (Enterococcus faecalis; 48 hrs, read-out: MIC) [µM] | MIC ([1]; 22 hrs, read-out: MIC) [µM] | MIC ([1]; 48 hrs, read-out: MIC) [µM] | MIC (Providencia rettgeri; 22 hrs, read-out: MIC) [µM] | MIC (Providencia rettgeri; 48 hrs, read-out: MIC) [µM] | MIC ([3]; 22 hrs) [µM] | MIC ([3]; 48 hrs) [µM] | MIC ([4]; 22 hrs) [µM] | MIC ([4]; 48 hrs) [µM] | MIC ([5]; 22 hrs) [µM] | MIC ([5]; 48 hrs) [µM] | MIC ([2]; read-out: MIC) [µM] | MIC ([6]; 22 hrs) [µM] | MIC ([6]; 48 hrs) [µM] | also measured
1 | CCCCCCCCCCCCCCCCO [C0, 1-Hexadecanol, reference compound] | > 880 | > 880 | > 880 | > 880 | > 880 | > 880 | > 880 | > 880 | 110 (≈ 26.7 µg/mL) | 110 (≈ 26.7 µg/mL) |  |  |  |  |  |  |  |  |  | 
2 | CCCCCCCCCCCCCOCCOCCOCCOCCOCCOCCO [C13E6, polyoxyethylene (6) tridecyl alcohol] |  |  |  |  |  |  |  |  |  |  |  |  |  |  |  |  |  |  |  | MIC (Enterococcus faecium; 22 hrs): >880 µM; MIC (Enterococcus faecium; 48 hrs): >880 µM; MIC (Listeria monocytogenes; 22 hrs): >880 µM; MIC (Listeria monocytogenes; 48 hrs): >880 µM; MIC (Enterococcus faecalis; 22 hrs): 110 µM (≈ 51.1 µg/mL); MIC (Enterococcus faecalis; 48 hrs): 110 µM (≈ 51.1 µg/mL); MIC ([1]; 22 hrs): 110 µM (≈ 51.1 µg/mL); MIC ([1]; 48 hrs): 110 µM (≈ 51.1 µg/mL); MIC (Providencia rettgeri; 22 hrs): >880 µM; MIC (Providencia rettgeri; 48 hrs): >880 µM; MIC ([2]; over the micro-organisms tested or some of them): less than 0.88 mmol/L
3 | CCCCCCCCCCCCOCCO [L1, Ethylene Glycol Monododecyl Ether] | > 880 | > 880 | 440 (≈ 101 µg/mL) | 880 (≈ 203 µg/mL) | 440 (≈ 101 µg/mL) | 440 (≈ 101 µg/mL) | 220 (≈ 50.7 µg/mL) | 220 (≈ 50.7 µg/mL) | > 880 | > 880 | 880 (≈ 203 µg/mL) | 880 (≈ 203 µg/mL) | 440 (≈ 101 µg/mL) | 440 (≈ 101 µg/mL) | 220 (≈ 50.7 µg/mL) | 220 (≈ 50.7 µg/mL) | ≤ 440 | 220 (≈ 50.7 µg/mL) | 220 (≈ 50.7 µg/mL) | 
4 | CCCCCCCCCCCCOCCOCCO [L2, Diethylene Glycol Monododecyl Ether] | > 880 | > 880 | 220 (≈ 60.4 µg/mL) | 220 (≈ 60.4 µg/mL) | 220 (≈ 60.4 µg/mL) | 220 (≈ 60.4 µg/mL) | 110 (≈ 30.2 µg/mL) | 110 (≈ 30.2 µg/mL) | > 880 | > 880 | > 880 | > 880 | 880 (≈ 242 µg/mL) | 880 (≈ 242 µg/mL) | 220 (≈ 60.4 µg/mL) | 220 (≈ 60.4 µg/mL) |  | 220 (≈ 60.4 µg/mL) | 220 (≈ 60.4 µg/mL) | 
5 | CCCCCCCCCCCCOCCOCCOCCO [L3, Triethylene Glycol Monododecyl Ether] | 110 (≈ 35 µg/mL) | 110 (≈ 35 µg/mL) | 110 (≈ 35 µg/mL) | 220 (≈ 70.1 µg/mL) | 110 (≈ 35 µg/mL) | 110 (≈ 35 µg/mL) | ≤ 50 | ≤ 50 | > 880 | > 880 | 880 (≈ 280 µg/mL) | > 880 | 440 (≈ 140 µg/mL) | 440 (≈ 140 µg/mL) | 440 (≈ 140 µg/mL) | 440 (≈ 140 µg/mL) | ~110 (≈ 35 µg/mL) | 220 (≈ 70.1 µg/mL) | 220 (≈ 70.1 µg/mL) | 
